Converted amounts (≈) assume the structure as drawn. “And” between values parts separate entries of the source, which are not always exact repeats. Equal entries are not always repeated. Marks after values point to notes of the source that are not given here.
Key:
[1] = test system: Candida albicans SC5314; experiment: Disseminated candidiasis in immunocompromised murine model (BALB/c mice): tissue fungal burden; type: in vivo; conditions: 7 days
[2] = test system: all Candida strains; experiment: MIC testing (CLSI M27-A3), summary; type: cell-based
[3] = test system: all Aspergillus strains tested; experiment: MFC determination, summary; type: cell-based
[4] = test system: A. fumigatus AF91; experiment: In vitro activity (MFC) against the infecting strain, Example 17; type: cell-based, Aspergillus fumigatus; conditions: Aspergillus fumigatus, read-out: MFC
Procedure: Minimum Fungicidal Concentration: MFC determinations were performed according to the modifications previously described by Canton et al., Diagn. Microbiol. Infect. Dis., 45:203-206, 2003, and Ghannoum and Isham, Infectious Diseases in Clinical Practice, 15(4):250-253, 2007.
Specifically, the total contents of each clear well from the MIC assay were subcultured onto potato dextrose agar. To avoid antifungal carryover, the aliquots were allowed to soak into the agar and then were streaked for isolation once dry, thus removing the cells from the drug source. Fungicidal activity is defined as ≥99.9% reduction in the number of colony forming units (CFU)/ml from the starting inoculum count, while fungistatic activity is defined as <99.9% reduction. […] MIC and MFC values are considered to be equivalent if they are within 2 dilutions.

[5] = test system: C. krusei strains; experiment: MIC testing (CLSI M27-A3); type: cell-based
[6] = test system: C. parapsilosis; experiment: MFC determination; type: cell-based
[7] = test system: A. fumigatus AF91; experiment: In vitro activity (MIC) against the infecting strain, Example 17; type: cell-based, Aspergillus fumigatus; conditions: Aspergillus fumigatus, read-out: MIC
Procedure: Minimum Inhibitory Concentration: MIC testing was performed according to the Clinical and Laboratory Standards Institute (CLSI) M27-A3 and M38-A2 standards for the susceptibility testing of yeasts and filamentous fungi, respectively (Cryptococcus isolates were incubated for 72 h). For yeast strains, the incubation temperature and time were 35° C. and 24-48 h, respectively, and the inoculum size was 0.5-2.5×10^3 CFU/ml. For filamentous strains, the inoculum size was 0.4-5×10^4 CFU/ml, and the incubation time was strain and drug specific. RPMI 1640 was the test medium throughout, with the exception of the use of YNB for Cryptococcus. Inhibition endpoints for compound 1A were recorded at 50% and 100% after both 24 h and 48 h incubation; caspofungin results against Aspergillus strains were read as minimum effective concentrations (MEC), the lowest concentration that leads to small, rounded, compact growth as compared to the confluent growth of the control.

[8] = test system: Penicillium strains; experiment: MFC determination; type: cell-based, Penicillium spp.
[9] = test system: Aspergillus fumigatus AF91; experiment: Disseminated Aspergillosis in immunocompromised murine model (CD-1 mice): tissue fungal burden; conditions: 7 days
[10] = test system: Fusarium strains; experiment: MFC determination, Table 17; type: cell-based, Fusarium spp.; conditions: Fusarium strains (Table 17)
[11] = test system: C. parapsilosis; experiment: MIC testing (CLSI M27-A3); type: cell-based; set-up: MIC: unit not given beside the values
[12] = test system: individual Aspergillus spp. (Table 15, species not named); experiment: MFC determination, Table 15; type: cell-based; conditions: Aspergillus sp. of Table 15
[13] = test system: individual Aspergillus spp. (Table 13, species not given); experiment: MFC determination, Table 13; type: cell-based; conditions: Aspergillus sp. of Table 13
[14] = test system: Cr. neoformans strains; experiment: MFC determination; type: cell-based, Cryptococcus neoformans; conditions: Cr. neoformans
[15] = test system: individual Aspergillus spp. (Table 12, species not named); experiment: MFC determination, Table 12; type: cell-based; conditions: Aspergillus sp. of Table 12
[16] = test system: individual Aspergillus spp. (Table 12, species not named); experiment: MIC testing (CLSI M38-A2), Table 12; type: cell-based; conditions: Aspergillus sp. of Table 12, caspofungin read as MEC
[17] = test system: Candida albicans; experiment: MIC testing (CLSI M27-A3); type: cell-based; set-up: MIC: unit not given beside the values; conditions: for MIC Range: in µg/mL
[18] = test system: C. krusei strains; experiment: MFC determination; type: cell-based
[19] = test system: all Candida strains; experiment: MFC determination, summary; type: cell-based
[20] = test system: Fusarium strains; experiment: MIC testing (CLSI M38-A2), Table 17; type: cell-based, Fusarium spp.; conditions: Fusarium strains (Table 17)
[21] = test system: C. albicans SC5314; experiment: In vitro activity (MIC) against the infecting strain, Example 18; type: cell-based, Candida albicans; conditions: Candida albicans, read-out: MIC
[22] = test system: all Aspergillus strains tested; experiment: MIC testing (CLSI M38-A2), summary; type: cell-based; conditions: caspofungin read as MEC
[23] = individual C. krusei strain with elevated MICs to non-polyene comparators (Table 22)
[24] = C. parapsilosis strains, in µg/mL
[25] = individual C. parapsilosis strain with elevated MICs to non-polyene comparators (Table 22)
[26] = Experiment II, 0.5 mg/kg i.v. daily
[27] = Experiment II, 1.0 mg/kg i.v. daily

C[C@@H]1[C@H](O)[C@@H](C)/C=C/C=C/C=C/C=C/C=C/C=C/C=C/[C@H](O[C@@H]2O[C@H](C)[C@@H](O)[C@H](N)[C@@H]2O)C[C@@H]2O[C@](O)(C[C@@H](O)[C@H](O)CC[C@@H](O)C[C@@H](O)C[C@@H](O)CC(=O)O[C@H]1C)C[C@H](O)[C@H]2C [Compound 1A]
Brain tissue fungal burden, Mean log CFUs ± the standard deviation ([1]; Experiment I, 0.35 mg/kg i.v.): 2.92 ± 1.21 log CFUs
Kidney tissue fungal burden, Mean log CFUs ± the standard deviation ([1]; Experiment I, 0.35 mg/kg i.v.): 3.16 ± 1.41 log CFUs
Brain tissue fungal burden, Mean log CFUs ± the standard deviation ([1]; Experiment I, 0.7 mg/kg i.v.): 3.59 ± 1.20 log CFUs
Kidney tissue fungal burden, Mean log CFUs ± the standard deviation ([1]; Experiment I, 0.7 mg/kg i.v.): 2.66 ± 2.11 log CFUs
Brain tissue fungal burden, Mean log CFUs ± the standard deviation ([1]; Experiment II, 0.35 mg/kg i.v.): 3.55 ± 1.26 log CFUs
Kidney tissue fungal burden, Mean log CFUs ± the standard deviation ([1]; Experiment II, 0.35 mg/kg i.v.): 3.53 ± 0.63 log CFUs
Brain tissue fungal burden, Mean log CFUs ± the standard deviation ([1]; Experiment II, 0.7 mg/kg i.v.): 2.97 ± 2.04 log CFUs
Kidney tissue fungal burden, Mean log CFUs ± the standard deviation ([1]; Experiment II, 0.7 mg/kg i.v.): 2.99 ± 1.05^a,b log CFUs
MIC Range ([2]; in µg/mL): 0.125-8
MIC50 ([2]; inhibits 50% of strains): 1 µg/mL (≈ 1.12 µM)
MIC90 ([2]; inhibits 90% of strains): 2 µg/mL (≈ 2.24 µM)
MFC50 ([3]; kills 50% of strains): 4 µg/mL (≈ 4.47 µM)
MFC90 ([3]; kills 90% of strains): > 4 µg/mL
MFC [4]: 2 µg/mL (≈ 2.24 µM)
MIC Range ([5]; C. krusei strains, in µg/mL): 0.5-2
MIC50 ([5]; C. krusei, inhibits 50% of strains): 1 µg/mL (≈ 1.12 µM)
MIC90 ([5]; C. krusei, inhibits 90% of strains): 2 µg/mL (≈ 2.24 µM)
MIC [5, 23]: 0.5 µg/mL (≈ 0.559 µM)
MFC Range [6, 24]: 0.25-2
MFC50 ([6]; C. parapsilosis, kills 50% of strains): 0.5 µg/mL (≈ 0.559 µM)
MFC90 ([6]; C. parapsilosis, kills 90% of strains): 2 µg/mL (≈ 2.24 µM)
MFC [6, 25]: 0.5 (2×) and 1
MIC [7]: 2 µg/mL (≈ 2.24 µM)
MFC50 ([8]; kills 50% of strains): 2 µg/mL (≈ 2.24 µM)
MFC90 ([8]; kills 90% of strains): 4 µg/mL (≈ 4.47 µM)
Kidney tissue fungal burden, Mean log CFUs ± the standard deviation ([9]; Experiment I, 0.5 mg/kg i.v.): 3.16 ± 0.40 log CFUs
Lung tissue fungal burden, Mean log CFUs ± the standard deviation ([9]; Experiment I, 0.5 mg/kg i.v.): 3.46 ± 0.49 log CFUs
Kidney tissue fungal burden, Mean log CFUs ± the standard deviation ([9]; Experiment I, 1.0 mg/kg i.v.): 0.51 ± 1.02 log CFUs
Lung tissue fungal burden, Mean log CFUs ± the standard deviation ([9]; Experiment I, 1.0 mg/kg i.v.): 0.55 ± 1.10 log CFUs
Kidney tissue fungal burden, Mean log CFUs ± the standard deviation [9, 26]: 2.93 ± 0.73 log CFUs
Lung tissue fungal burden, Mean log CFUs ± the standard deviation [9, 26]: 2.75 ± 0.93 log CFUs
Kidney tissue fungal burden, Mean log CFUs ± the standard deviation [9, 27]: 1.16 ± 1.10 log CFUs
Lung tissue fungal burden, Mean log CFUs ± the standard deviation [9, 27]: 1.17 ± 1.15 log CFUs
MFC Range ([10]; in µg/mL): 1-4
MFC50 ([10]; kills 50% of strains): 2 µg/mL (≈ 2.24 µM)
MFC90 ([10]; kills 90% of strains): > 4 µg/mL
MIC Range [11, 24]: 0.25-2
MIC50 ([11]; C. parapsilosis, inhibits 50% of strains): 0.25 µg/mL (≈ 0.28 µM)
MIC90 ([11]; C. parapsilosis, inhibits 90% of strains): 2 µg/mL (≈ 2.24 µM)
MIC [11, 25]: 0.5 (2×) and 1
MFC50 ([12]; kills 50% of strains): > 4 µg/mL
MFC90 ([12]; kills 90% of strains): > 4 µg/mL
MFC50 ([13]; kills 50% of strains): 2 µg/mL (≈ 2.24 µM)
MFC90 ([13]; kills 90% of strains): > 4 µg/mL
MFC50 ([14]; kills 50% of strains): 1 µg/mL (≈ 1.12 µM)
MFC90 ([14]; kills 90% of strains): > 4 µg/mL
MFC50 ([15]; kills 50% of strains): 4 µg/mL (≈ 4.47 µM)
MFC90 ([15]; kills 90% of strains): > 4 µg/mL
MIC Range ([16]; in µg/mL): 1-4
MIC50 ([16]; inhibits 50% of strains): 2 µg/mL (≈ 2.24 µM)
MIC90 ([16]; inhibits 90% of strains): 2 µg/mL (≈ 2.24 µM)
MIC Range ([17]; Fluconazole-resistant C. albicans n = 7): 1-2
MIC Range ([17]; Fluconazole-susceptible C. albicans n = 13): 0.125-1
MIC50 ([17]; Fluconazole-susceptible C. albicans n = 13, inhibits 50% of strains): 0.5 µg/mL (≈ 0.559 µM)
MIC90 ([17]; Fluconazole-susceptible C. albicans n = 13, inhibits 90% of strains): 1 µg/mL (≈ 1.12 µM)
MIC ([17]; individual C. albicans strain with elevated MICs to non-polyene comparators (Table 22)): 1 (6×) and 2
MFC Range ([18]; C. krusei strains, in µg/mL): 0.5-2
MFC50 ([18]; C. krusei, kills 50% of strains): 1 µg/mL (≈ 1.12 µM)
MFC90 ([18]; C. krusei, kills 90% of strains): 2 µg/mL (≈ 2.24 µM)
MFC [18, 23]: 2 µg/mL (≈ 2.24 µM)
MFC Range ([19]; in µg/mL): 0.125-16
MFC50 ([19]; kills 50% of strains): 1 µg/mL (≈ 1.12 µM)
MFC90 ([19]; kills 90% of strains): 2 µg/mL (≈ 2.24 µM)
MIC Range ([20]; in µg/mL): 1-4
MIC50 ([20]; inhibits 50% of strains): 2 µg/mL (≈ 2.24 µM)
MIC90 ([20]; inhibits 90% of strains): 4 µg/mL (≈ 4.47 µM)
MIC [21]: 0.5 µg/mL (≈ 0.559 µM)
MIC Range ([22]; in µg/mL): 0.5-4
MIC50 ([22]; inhibits 50% of strains): 2 µg/mL (≈ 2.24 µM)
MIC90 ([22]; inhibits 90% of strains): 2 µg/mL (≈ 2.24 µM)
